# Results reported in patent US7008953B2, “3, 5 Disubstituted indazole compounds, pharmaceutical compositions, and methods for mediating or inhibiting cell proliferation” (Agouron Pharmaceuticals, Inc., priority 2003, dated 2006).
# Tests used:
# Type in all cases: biochemical
# Settings in all cases: method of Davies et al.
# MAPKAP-K2 = MAPKAP-K2 (Homo sapiens, UniProt P49137); assay: Panel of protein kinases: MAPKAP-K2
# Protocol: (§1) The compounds of the present invention were screened against a large panel of protein kinase to determine inhibition activity for CDK as against a variety of protein kinases. The assay was conducted using methods and materials described by Davies, S et al. Specificity and Mechanism of Action of Some Commonly Used Protein Kinase Inhibitors, Biochem J. 351, 95–105 (2000), the contents of which are herein incorporated by reference. The compounds were screened against a panel of protein kinases which include AMP-activiated protein kinase (AMPK), checkpoint kinase (CHK1), casein kinases 1 and 2 (CK1 and CK2), cytoplasmic tyrosine kinase (CSK), dual serine/threonine/tyrosine kinase (DYRK1A), glycogen synthase kinase 3 (GSK3B), c-Jun N-terminal kinase (JNK), lymphocyte kinase (LCK), mitogen-activated protein kinases 2, K-1a, K2 (MAPK2, MAPKAP-K1a, and MAPKAP-K2), MAPK kinase (MKK1, also called MEK), mitogen and stress-activated protein kinase 1 (MSK1), never-in-mitosis kinase 6 (NEK6), p70 ribosomal protein S6 kinase (P70s6K1), 3-phosphoinositide-dependent protein kinase 1 (PDK1), phosphorylase kinase (PHK), protein kinase A (PKA), protein kinase B (PKB, also called Akt), protein kinase C (PKCa), p38-regulated/activated kinase (PRAK), Rho-dependent protein kinase (ROCK-II), stress-activated protein kinase 2a, 2b, 3 and 4 (SAPK-2A or p38, SAPK-2b or p38β2, SAPK3 or p38γ, SAPK4 or p38δ, respectively), and serum- and glucocorticoid-induced kinase (SGK). Compound activity was grouped into categories of weak (<50%), moderate (50–75%) and strong inhibition (>75%).
# [1] = target: stress-activated protein kinase 2b (SAPK-2b or p38β2) (Homo sapiens, UniProt Q15759); assay: Panel of protein kinases: SAPK-2b
# Protocol: as §1
# [2] = test system: AMP-activiated protein kinase (AMPK); assay: Panel of protein kinases: AMPK
# Protocol: as §1
# protein kinase C (PKCa) = protein kinase C (PKCa) (Homo sapiens, UniProt P17252); assay: Panel of protein kinases: PKCa
# Protocol: as §1
# casein kinase 2 (CK2) = assay: Panel of protein kinases: CK2
# Protocol: as §1
# MAPKAP-K1a = MAPKAP-K1a (Homo sapiens, UniProt Q15418); assay: Panel of protein kinases: MAPKAP-K1a
# Protocol: as §1
# [3] = test system: p70 ribosomal protein S6 kinase (P70s6K1); assay: Panel of protein kinases: P70s6K1
# Protocol: as §1
# [4] = target: MAPK kinase (MKK1, also called MEK) (Homo sapiens, UniProt Q02750); assay: Panel of protein kinases: MKK1
# Protocol: as §1
# [5] = test system: Rho-dependent protein kinase (ROCK-II); assay: Panel of protein kinases: ROCK-II
# Protocol: as §1
# [6] = target: cytoplasmic tyrosine kinase (CSK) (Homo sapiens, UniProt P41240); assay: Panel of protein kinases: CSK
# Protocol: as §1
# [7] = target: T1, stress-activated protein kinase 4 (SAPK4 or p38δ) (Homo sapiens, UniProt O15264); assay: Panel of protein kinases: SAPK4
# T1 sequence (O15264 1-365): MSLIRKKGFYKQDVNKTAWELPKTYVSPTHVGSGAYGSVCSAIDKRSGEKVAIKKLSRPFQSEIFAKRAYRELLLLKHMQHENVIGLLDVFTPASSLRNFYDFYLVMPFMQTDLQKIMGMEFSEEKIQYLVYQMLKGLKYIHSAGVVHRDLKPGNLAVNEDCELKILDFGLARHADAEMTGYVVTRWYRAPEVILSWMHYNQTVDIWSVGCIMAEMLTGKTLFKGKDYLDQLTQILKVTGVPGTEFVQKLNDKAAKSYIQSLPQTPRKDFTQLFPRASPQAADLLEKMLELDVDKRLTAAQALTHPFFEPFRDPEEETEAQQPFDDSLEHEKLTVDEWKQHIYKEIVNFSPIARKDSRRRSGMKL
# Protocol: as §1
# [8] = target: c-Jun N-terminal kinase (JNK) (Homo sapiens, UniProt P45983); assay: Panel of protein kinases: JNK
# Protocol: as §1
# casein kinase 1 (CK1) = assay: Panel of protein kinases: CK1
# Protocol: as §1
# [9] = target: T2, p38-regulated/activated kinase (PRAK) (Homo sapiens, UniProt Q8IW41); assay: Panel of protein kinases: PRAK
# T2 sequence (Q8IW41 1-473): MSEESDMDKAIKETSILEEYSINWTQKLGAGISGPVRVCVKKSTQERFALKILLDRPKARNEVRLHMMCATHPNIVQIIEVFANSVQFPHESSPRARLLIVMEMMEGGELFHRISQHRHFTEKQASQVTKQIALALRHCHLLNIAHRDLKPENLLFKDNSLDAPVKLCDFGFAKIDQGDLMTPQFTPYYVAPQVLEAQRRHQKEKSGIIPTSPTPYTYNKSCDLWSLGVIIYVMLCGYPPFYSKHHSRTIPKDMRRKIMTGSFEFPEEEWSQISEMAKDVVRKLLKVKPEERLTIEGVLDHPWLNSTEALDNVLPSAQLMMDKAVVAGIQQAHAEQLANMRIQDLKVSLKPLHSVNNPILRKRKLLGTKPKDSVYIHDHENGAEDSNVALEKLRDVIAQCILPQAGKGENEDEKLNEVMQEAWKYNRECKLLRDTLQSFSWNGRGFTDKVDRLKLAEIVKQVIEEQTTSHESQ
# Protocol: as §1
# [10] = target: never-in-mitosis kinase 6 (NEK6) (Homo sapiens, UniProt Q9HC98); assay: Panel of protein kinases: NEK6
# Protocol: as §1
# Chain of stress-activated protein kinase 2b (SAPK-2b or p38β2) (Q15759 whole entry): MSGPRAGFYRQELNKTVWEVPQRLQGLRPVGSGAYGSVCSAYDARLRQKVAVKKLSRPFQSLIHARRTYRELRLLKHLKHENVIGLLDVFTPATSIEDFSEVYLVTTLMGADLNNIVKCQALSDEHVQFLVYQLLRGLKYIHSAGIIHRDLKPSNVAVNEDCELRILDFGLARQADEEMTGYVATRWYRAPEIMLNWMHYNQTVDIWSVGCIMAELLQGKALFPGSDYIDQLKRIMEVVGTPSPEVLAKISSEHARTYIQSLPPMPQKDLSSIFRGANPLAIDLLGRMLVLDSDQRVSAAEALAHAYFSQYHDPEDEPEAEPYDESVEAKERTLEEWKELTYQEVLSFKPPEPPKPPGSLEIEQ
# Chain of cytoplasmic tyrosine kinase (CSK) (P41240 whole entry, species assumed): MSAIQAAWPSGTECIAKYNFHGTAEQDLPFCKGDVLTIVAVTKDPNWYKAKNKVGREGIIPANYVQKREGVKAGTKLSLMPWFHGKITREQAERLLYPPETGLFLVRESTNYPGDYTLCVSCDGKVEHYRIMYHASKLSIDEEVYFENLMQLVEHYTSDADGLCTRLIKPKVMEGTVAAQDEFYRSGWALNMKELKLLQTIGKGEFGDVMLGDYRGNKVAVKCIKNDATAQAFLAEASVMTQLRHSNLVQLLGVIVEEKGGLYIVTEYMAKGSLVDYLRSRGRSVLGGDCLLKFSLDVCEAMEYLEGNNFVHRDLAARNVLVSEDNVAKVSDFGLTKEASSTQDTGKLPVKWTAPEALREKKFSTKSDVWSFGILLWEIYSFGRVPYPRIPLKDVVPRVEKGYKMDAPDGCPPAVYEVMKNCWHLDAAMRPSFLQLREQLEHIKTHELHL
# Chain of MAPKAP-K2 (P49137 whole entry, species assumed): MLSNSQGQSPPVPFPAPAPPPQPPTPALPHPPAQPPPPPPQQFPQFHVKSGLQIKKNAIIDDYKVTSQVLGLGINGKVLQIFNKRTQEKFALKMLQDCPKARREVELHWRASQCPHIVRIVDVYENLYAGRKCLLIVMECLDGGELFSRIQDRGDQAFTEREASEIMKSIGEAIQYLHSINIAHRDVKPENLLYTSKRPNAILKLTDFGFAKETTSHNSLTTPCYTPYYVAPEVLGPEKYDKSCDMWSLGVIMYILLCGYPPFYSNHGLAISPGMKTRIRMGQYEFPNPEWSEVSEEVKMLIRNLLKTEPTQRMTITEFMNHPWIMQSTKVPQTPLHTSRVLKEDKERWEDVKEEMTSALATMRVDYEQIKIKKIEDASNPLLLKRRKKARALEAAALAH
# Chain of never-in-mitosis kinase 6 (NEK6) (Q9HC98 whole entry, species assumed): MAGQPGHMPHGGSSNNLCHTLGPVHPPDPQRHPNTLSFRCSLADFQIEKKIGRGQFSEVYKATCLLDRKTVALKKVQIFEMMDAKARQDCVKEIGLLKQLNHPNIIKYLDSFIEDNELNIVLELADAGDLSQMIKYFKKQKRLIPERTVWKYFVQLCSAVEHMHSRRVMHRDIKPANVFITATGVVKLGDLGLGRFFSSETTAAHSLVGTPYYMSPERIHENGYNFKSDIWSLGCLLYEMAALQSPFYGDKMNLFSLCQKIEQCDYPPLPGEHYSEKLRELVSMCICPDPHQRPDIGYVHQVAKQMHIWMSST
# Chain of MAPK kinase (MKK1, also called MEK) (Q02750 whole entry): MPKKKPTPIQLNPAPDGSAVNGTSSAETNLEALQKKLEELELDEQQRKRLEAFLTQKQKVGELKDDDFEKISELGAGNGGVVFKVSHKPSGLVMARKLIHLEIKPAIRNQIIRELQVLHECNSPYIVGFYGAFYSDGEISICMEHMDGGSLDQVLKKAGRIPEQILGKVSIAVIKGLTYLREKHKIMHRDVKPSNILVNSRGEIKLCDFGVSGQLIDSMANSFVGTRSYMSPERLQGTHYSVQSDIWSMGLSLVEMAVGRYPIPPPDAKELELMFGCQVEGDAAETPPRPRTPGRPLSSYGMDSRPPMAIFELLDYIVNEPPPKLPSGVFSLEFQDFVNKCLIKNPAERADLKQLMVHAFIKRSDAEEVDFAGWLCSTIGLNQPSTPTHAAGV
# Chain of MAPKAP-K1a (Q15418 whole entry, species assumed): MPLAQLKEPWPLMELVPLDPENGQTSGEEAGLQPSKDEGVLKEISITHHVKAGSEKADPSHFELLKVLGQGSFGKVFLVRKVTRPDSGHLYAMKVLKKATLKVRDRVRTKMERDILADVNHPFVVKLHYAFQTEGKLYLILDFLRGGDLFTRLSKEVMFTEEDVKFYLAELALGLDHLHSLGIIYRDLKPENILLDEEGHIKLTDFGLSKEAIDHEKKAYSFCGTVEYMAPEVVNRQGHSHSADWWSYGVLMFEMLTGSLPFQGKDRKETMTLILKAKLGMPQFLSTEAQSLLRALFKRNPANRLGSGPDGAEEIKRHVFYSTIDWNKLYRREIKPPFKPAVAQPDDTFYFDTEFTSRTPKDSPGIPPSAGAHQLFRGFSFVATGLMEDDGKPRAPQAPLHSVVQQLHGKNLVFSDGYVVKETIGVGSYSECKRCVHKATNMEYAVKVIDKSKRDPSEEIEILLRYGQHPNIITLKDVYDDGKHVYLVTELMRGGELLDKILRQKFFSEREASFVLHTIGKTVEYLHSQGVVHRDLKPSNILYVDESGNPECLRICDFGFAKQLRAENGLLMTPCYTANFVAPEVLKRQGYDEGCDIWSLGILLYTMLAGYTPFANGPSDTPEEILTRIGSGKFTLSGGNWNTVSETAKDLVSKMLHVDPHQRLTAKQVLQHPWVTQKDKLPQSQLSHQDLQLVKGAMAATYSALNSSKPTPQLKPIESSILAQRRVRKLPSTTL
# Chain of c-Jun N-terminal kinase (JNK) (P45983 whole entry): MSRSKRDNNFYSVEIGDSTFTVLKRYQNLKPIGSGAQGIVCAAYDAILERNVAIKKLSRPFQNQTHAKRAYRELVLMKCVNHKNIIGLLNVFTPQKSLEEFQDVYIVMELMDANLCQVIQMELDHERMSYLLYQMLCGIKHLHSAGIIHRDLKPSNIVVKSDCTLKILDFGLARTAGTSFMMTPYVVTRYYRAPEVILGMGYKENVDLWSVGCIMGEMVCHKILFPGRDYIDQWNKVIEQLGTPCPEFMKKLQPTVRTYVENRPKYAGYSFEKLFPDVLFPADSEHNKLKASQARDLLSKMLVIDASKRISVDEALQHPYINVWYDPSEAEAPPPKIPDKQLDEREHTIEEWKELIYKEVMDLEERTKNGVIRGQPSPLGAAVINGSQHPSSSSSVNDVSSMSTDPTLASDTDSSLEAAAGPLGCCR
Compound,Kinase MAPKAP-K2 inhibition (MAPKAP-K2),Kinase SAPK-2b inhibition [1],Kinase AMPK inhibition [2],Kinase PKCa inhibition (protein kinase C (PKCa)),Kinase CK2 inhibition (casein kinase 2 (CK2)),Kinase MAPKAP-K1a inhibition (MAPKAP-K1a),Kinase P70s6K1 inhibition [3],Kinase MKK1 inhibition [4],Kinase ROCK-II inhibition [5],Kinase CSK inhibition [6],Kinase SAPK4 inhibition [7],Kinase JNK inhibition [8],Kinase CK1 inhibition (casein kinase 1 (CK1)),Kinase PRAK inhibition [9],Kinase NEK6 inhibition [10]
CCNCc1cncc(-c2ccc3[nH]nc(-c4nc5ccccc5[nH]4)c3c2)c1C [A],− (Weak inhibition <50%),− (Weak inhibition <50%),++ (Strong inhibition >75%),+ (Moderate inhibition 50–75%),− (Weak inhibition <50%),++ (Strong inhibition >75%),+ (Moderate inhibition 50–75%),++ (Strong inhibition >75%),++ (Strong inhibition >75%),− (Weak inhibition <50%),− (Weak inhibition <50%),− (Weak inhibition <50%),− (Weak inhibition <50%),++ (Strong inhibition >75%),− (Weak inhibition <50%)
CCNCc1cncc(-c2ccc3[nH]nc(-c4nc5c(C(=O)NC)cccc5[nH]4)c3c2)c1C [B],− (Weak inhibition <50%),− (Weak inhibition <50%),++ (Strong inhibition >75%),++ (Strong inhibition >75%),− (Weak inhibition <50%),++ (Strong inhibition >75%),+ (Moderate inhibition 50–75%),+ (Moderate inhibition 50–75%),+ (Moderate inhibition 50–75%),− (Weak inhibition <50%),− (Weak inhibition <50%),− (Weak inhibition <50%),− (Weak inhibition <50%),+ (Moderate inhibition 50–75%),− (Weak inhibition <50%)
CCNCc1cncc(-c2ccc3[nH]nc(-c4nc5c(SC)cccc5[nH]4)c3c2)c1C [C],− (Weak inhibition <50%),− (Weak inhibition <50%),++ (Strong inhibition >75%),+ (Moderate inhibition 50–75%),− (Weak inhibition <50%),++ (Strong inhibition >75%),− (Weak inhibition <50%),+ (Moderate inhibition 50–75%),+ (Moderate inhibition 50–75%),− (Weak inhibition <50%),− (Weak inhibition <50%),− (Weak inhibition <50%),− (Weak inhibition <50%),++ (Strong inhibition >75%),− (Weak inhibition <50%)
CCNCc1cncc(-c2ccc3[nH]nc(-c4nc5c(NC(C)=O)cccc5[nH]4)c3c2)c1C [D],− (Weak inhibition <50%),− (Weak inhibition <50%),++ (Strong inhibition >75%),− (Weak inhibition <50%),− (Weak inhibition <50%),+ (Moderate inhibition 50–75%),− (Weak inhibition <50%),+ (Moderate inhibition 50–75%),− (Weak inhibition <50%),− (Weak inhibition <50%),− (Weak inhibition <50%),− (Weak inhibition <50%),− (Weak inhibition <50%),+ (Moderate inhibition 50–75%),− (Weak inhibition <50%)
"CCNCc1cncc(-c2ccc3[nH]nc(-c4nc5c(F)cc(F)cc5[nH]4)c3c2)c1C [Example 1, {5-[3-(4,6-Difluoro-1H-benzoimidazol-2-yl)-1H-indazol-5-yl]-4-methyl-pyridin-3-ylmethyl}-ethyl-amine]",− (Weak inhibition <50%),− (Weak inhibition <50%),++ (Strong inhibition >75%),− (Weak inhibition <50%),− (Weak inhibition <50%),++ (Strong inhibition >75%),− (Weak inhibition <50%),− (Weak inhibition <50%),− (Weak inhibition <50%),− (Weak inhibition <50%),− (Weak inhibition <50%),− (Weak inhibition <50%),− (Weak inhibition <50%),− (Weak inhibition <50%),− (Weak inhibition <50%)
"CCNCc1cncc(-c2ccc3[nH]nc(-c4nc5cc(F)ccc5[nH]4)c3c2)c1C [Example 2, Ethyl-{5-[3-(5-fluoro-1H-benzoimidazol-2-yl)-1H-indazol-5-yl]-4-methyl-pyridin-3-ylmethyl}-amine]",− (Weak inhibition <50%),− (Weak inhibition <50%),–,− (Weak inhibition <50%),–,− (Weak inhibition <50%),–,− (Weak inhibition <50%),–,− (Weak inhibition <50%),− (Weak inhibition <50%),− (Weak inhibition <50%),–,− (Weak inhibition <50%),− (Weak inhibition <50%)
